Experimental data from patent publication US20260085034A1, “N-(BENZHYDRYL)CYCLOALKYLCARBOXAMIDE DERIVATIVES AS INHIBITORS OF GLYCOGEN SYNTHASE 1 (GYS1) AND METHODS OF USE THEREOF” (Maze Therapeutics, Inc., priority 2022, published 2026).

Tests used:
[1] = target: T1, recombinant hGYS1/GN1 protein (Homo sapiens, UniProt P13807); assay: GYS1 coupled enzyme assay (PK/LDH); format: biochemical; conditions: geometric mean of at least 2 assay runs; NADH absorbance at 340 nm
T1 sequence (P13807 1-737): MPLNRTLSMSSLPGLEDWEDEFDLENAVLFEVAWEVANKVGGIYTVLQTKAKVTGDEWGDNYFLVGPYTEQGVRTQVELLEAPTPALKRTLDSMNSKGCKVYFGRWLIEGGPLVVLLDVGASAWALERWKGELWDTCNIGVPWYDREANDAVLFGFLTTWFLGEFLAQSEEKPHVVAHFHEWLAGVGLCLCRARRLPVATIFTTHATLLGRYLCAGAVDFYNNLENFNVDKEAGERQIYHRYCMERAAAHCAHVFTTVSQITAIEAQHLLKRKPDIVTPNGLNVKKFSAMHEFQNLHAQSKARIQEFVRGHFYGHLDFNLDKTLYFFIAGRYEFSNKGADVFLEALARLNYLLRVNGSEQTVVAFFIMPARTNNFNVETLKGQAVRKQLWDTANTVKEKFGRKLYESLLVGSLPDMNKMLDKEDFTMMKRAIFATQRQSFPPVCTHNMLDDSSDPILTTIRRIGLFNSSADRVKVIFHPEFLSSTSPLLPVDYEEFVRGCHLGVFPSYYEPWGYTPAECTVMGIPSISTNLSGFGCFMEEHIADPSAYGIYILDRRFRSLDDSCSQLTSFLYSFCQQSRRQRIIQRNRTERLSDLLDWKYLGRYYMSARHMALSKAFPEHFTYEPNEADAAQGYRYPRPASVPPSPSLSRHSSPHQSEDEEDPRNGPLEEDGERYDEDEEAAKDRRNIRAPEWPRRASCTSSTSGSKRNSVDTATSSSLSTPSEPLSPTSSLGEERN
T1 sequence (P46976 1-350 partner): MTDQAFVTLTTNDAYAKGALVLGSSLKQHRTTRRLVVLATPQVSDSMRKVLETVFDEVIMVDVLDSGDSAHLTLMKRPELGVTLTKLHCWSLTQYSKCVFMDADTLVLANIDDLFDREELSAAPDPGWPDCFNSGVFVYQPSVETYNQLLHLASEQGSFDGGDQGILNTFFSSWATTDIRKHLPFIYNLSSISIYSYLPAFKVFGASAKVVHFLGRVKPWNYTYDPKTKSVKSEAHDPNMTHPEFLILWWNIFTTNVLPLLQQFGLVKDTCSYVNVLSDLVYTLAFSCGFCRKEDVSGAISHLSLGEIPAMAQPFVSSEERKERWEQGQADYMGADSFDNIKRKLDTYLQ
In short: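 Recombinant hGYS1/GN1 (50 nM) with 0.8 mM UDP-glucose, 0.2% glycogen and 1 mM glucose-6-phosphate in Tris pH 7.5, 2.5% DMSO. UDP formation coupled via PK/LDH to NADH oxidation, read at 340 nm over 10 min. Control-normalized slopes fit to Hill equation; IC50 as geometric mean of ≥2 runs.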

[2] = test system: glycogen synthesis in HeLa cells (hGYS1); assay: GYS1 cell based assay (glycogen digestion, Glucose-glo); conditions: Homo sapiens, 24 h incubation, 20 mM glucose, geometric mean of at least 2 runs, read-out: Cellular IC50
Text: The GYS1 cell based assay is a bioluminescent assay that quantifies the glucose resulting from glycogen digestion; the quantified glucose is an indirect measure of GYS1 glycogen synthesis. Newly synthesized glycogen is digested using Glucoamylase; the resulting glucose is quantified by using the Glucose-glo assay kit from Promega. Glucose-glo works by coupling glucose oxidation and NADH production with a bioluminescent system that is activated with NADH. Glucose is oxidized by Glucose dehydrogenase and the reaction reduces NAD+ to NADH; NADH activates Reductase which reduces a pro-luciferin Reductase Substrate to luciferin. Luciferin is detected in a luciferase reaction using Ultra-Glo rLuciferase and ATP, and the luminesce produced is proportional to the glucose in the sample. The luminescence is measured as a single point read in a plate reader.
Compounds that inhibit the hGYS1 enzyme and, subsequently, the glycogen synthesis in cells, were tested using assay ready plates (white, clear bottom 384 well plates) in a final DMSO reaction volume of 1% DMSO. Compounds in the assay ready plates were mixed with media with no additives, except for 20 mM glucose prior to cell addition. HeLa cells were starved in media with no additives, except for 1× Glutamax for 24 h. Starved HeLa cells were plated, in a 1:1 ratio to the media in the assay ready plate and incubated for 24 h at 37° C. and 5% CO2. Cells were washed in 1×PBS buffer and lysed in lysis buffer containing 50% 1×PBS and 25% 0.3 N HCl of the final volume in the well or reaction volume; cells were incubated with lysis buffer for 10 minutes and quenched with the remaining 25% of the reaction volume that consisted of 450 mM Tris pH 8.0. Lysates were mixed in a 1:1 ratio with Glucoamylase in 100 mM Sodium Acetate buffer, pH 5.3; the mixture was incubated for 1 h at 37° C. The digested lysate was mixed in a 1:1 ratio with Glucose-glo detection mixture as per vendor recommendations (Luciferase detection buffer, Reductase, Reductase substrate, Glucose dehydrogenase, and NAD) in read-out plates (solid white 384-well plates) and incubated for 1 h at RT. The plates were read using a plate reader with luminescence capabilities. Each compound concentration Relative Luminescence Unit (RLU) was averaged and normalized to the average RLU of the positive and negative controls to obtain a percentage inhibition. The normalized data vs. concentration was plotted; to determine the half-maximal concentration (IC50), the Levenberg-Marquardt algorithm was used to fit a Hill equation to the dose response data.
(§1) The results are shown in Table 4 below, which reports the IC50 of each compound. Unless otherwise specified, IC50 values are reported as the geometric mean of at least 2 assay runs on separate days. As shown in the table below, the compounds of the present invention are potent inhibitors of human GYS1. Unless otherwise specified, IC50 values are reported as the geometric mean of at least two assay runs on separate days. Each run represents the average of a technical replicate, where each compound was assayed twice in the same plate.

[3] = target: T2, recombinant hGYS2/GN1 protein (Homo sapiens, UniProt P54840); assay: GYS2 coupled enzyme assay (PK/LDH); format: biochemical; conditions: geometric mean of at least 2 assay runs; NADH absorbance at 340 nm
T2 sequence (P54840 1-703): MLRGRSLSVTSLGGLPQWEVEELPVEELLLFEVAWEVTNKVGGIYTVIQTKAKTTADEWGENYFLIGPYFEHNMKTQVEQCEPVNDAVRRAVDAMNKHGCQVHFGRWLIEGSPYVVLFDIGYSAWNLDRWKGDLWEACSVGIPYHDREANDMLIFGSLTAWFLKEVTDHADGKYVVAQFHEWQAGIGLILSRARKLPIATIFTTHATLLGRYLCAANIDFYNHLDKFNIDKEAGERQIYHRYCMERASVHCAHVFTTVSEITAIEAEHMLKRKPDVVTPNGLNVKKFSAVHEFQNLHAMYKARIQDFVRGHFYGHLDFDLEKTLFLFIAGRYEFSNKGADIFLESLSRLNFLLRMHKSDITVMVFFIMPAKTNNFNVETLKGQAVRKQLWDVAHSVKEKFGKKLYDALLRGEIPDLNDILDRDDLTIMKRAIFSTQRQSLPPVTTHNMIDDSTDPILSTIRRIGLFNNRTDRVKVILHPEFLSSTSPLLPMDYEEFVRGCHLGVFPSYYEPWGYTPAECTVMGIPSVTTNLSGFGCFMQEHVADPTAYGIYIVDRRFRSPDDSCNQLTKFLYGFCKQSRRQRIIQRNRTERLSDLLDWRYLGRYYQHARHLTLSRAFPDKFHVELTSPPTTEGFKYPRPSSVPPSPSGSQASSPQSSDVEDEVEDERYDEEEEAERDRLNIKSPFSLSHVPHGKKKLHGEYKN
T2 sequence (P46976 1-350 partner): T1 sequence (P46976 1-350 partner)
Text: The GYS2 coupled enzyme assay is a kinetic biochemical assay that indirectly quantifies the rate of glycogen synthesis by coupling the conversion of GYS2 substrate UDP-glucose into UDP with downstream enzymatic reactions. UDP is released from UDP-glucose as glucose monomers are linked into the growing glycogen strand by GYS2. The coupled assay then proceeds with pyruvate kinase utilizing UDP and phospho(enol)pyruvate (PEP) to form pyruvate. Lactate dehydrogenase then converts pyruvate and NADH into lactate and NAD+. Oxidation of NADH to NAD+ can be measured continuously with a plate reader by quantifying the decrease in NADH absorbance at 340 nm over time.
Compounds that inhibit the hGYS2 enzyme and, subsequently, the downstream conversion of NADH to NAD+, were tested using assay ready plates (black, clear bottom 384 well plates) in a final DMSO reaction volume of 2.5% DMSO. The Assay Buffer contained 50 mM Tris pH 7.5, 2 mM MgCl2, and 100 mM KCl. Fresh stocks of BSA at a final concentration of 0.02% and TCEP 1 mM were added before splitting buffer into hGYS2 buffer and substrate buffer. To the hGYS2 buffer, rabbit liver glycogen was added at a final concentration of 0.2% glycogen. Glucose-6-Phosphate was added at 2 mM, recombinant hGYS2/GN1 protein was added at 200 nM to the substrate buffer, phosphoenolpyruvate (PEP) was added at 2 mM, UDP-Glucose was added at 2 mM, NADH was added at 0.6 mM, and Pyruvate Kinase/Lactate Dehydrogenase was added at 20 units/mL. The reaction was initiated by mixing hGYS2 buffer and substrate buffer at a 1:1 ratio. Both buffers were plated using a liquid dispensing device with hGYS2 buffer plated first followed by the substrate buffer. Plates were spun briefly to eliminate air bubbles and are immediately read in continuous mode at an absorbance of 340 nm, for 10 time points in one-minute increments, for a total of 10 minutes. The slope from these 10 time points was normalized to the positive and negative control wells. The duplicate % inhibition values are then averaged and fit to a Hill equation for dose response according to the Levenberg-Marquardt algorithm with the Hill equation maximum set to 100 and the minimum set to 0.
as §1, with “in Table 5 below, which” for “in Table 4 below, which”, “invention are not potent inhibitors” for “invention are potent inhibitors”, “of human GYS2.[…]” for “of human GYS1. Unless otherwise”

Row | Compound | IC50 [1] [nM] | IC50 [2] [nM] | IC50 [3] [nM]
1 | CC(C)c1ccc([C@@H](NC(=O)[C@H]2C[C@@H]2F)c2cccc3[nH]c(=O)[nH]c23)cc1F (single isomer, unassigned) [compound 5] | 131 | 1060 | 
2 | CC(C)c1ccc([C@@H](NC(=O)[C@H]2C[C@@H]2F)c2cccc(-c3ccn[nH]3)c2)nc1F (single isomer, unassigned) [compound 4] | 156 | 2790 | 
3 | CC(C)c1ccc([C@@H](NC(=O)[C@@H]2C[C@H]2F)c2ccccc2)cc1 [compound 27, (1S,2R)-2-fluoro-N-((S)-(4-isopropylphenyl)(phenyl)methyl)cyclopropane-1-carboxamide] | 598 |  | > 100000
4 | CC(=O)Nc1ccc(F)cc1[C@H](NC(=O)C1CC1)c1ccc(C(C)C)cc1 (single isomer, unassigned) [compound 44] | 378 |  | > 100000
5 | CC(C)c1ccc([C@@H](NC(=O)C2CC2)c2cccc3[nH]c(=O)oc23)cc1 (single isomer, unassigned) [compound 15] | 883 |  | > 100000
6 | COCCN1CCC(C(=O)Nc2ccccc2[C@H](NC(=O)[C@H]2C[C@@H]2F)c2ccc(C(C)C)cc2)CC1 [compound 13, N-(2-((R)-((1R,2S)-2-fluorocyclopropane-1-carboxamido)(4-isopropylphenyl)methyl)phenyl)-1-(2-methoxyethyl)piperidine-4-carboxamide] | 1040 |  | > 100000
7 | COc1ccc([C@H](NC(=O)C2CC2)c2ccc(C(C)C)cc2)cc1 [compound 72, (R)-N-((4-isopropylphenyl)(4-methoxyphenyl)methyl)cyclopropanecarboxamide] | 2680 |  | > 100000

Next, values leading:

Row | IC50 [1] [nM] | IC50 [2] [nM] | IC50 [3] [nM] | Compound
8 | 55 | 1510 |  | CC(C)c1ccc([C@@H](NC(=O)[C@H]2C[C@@H]2F)c2ccc3cn[nH]c3c2)nc1F (single isomer, unassigned) [compound 3]
9 | 1140 | 6520 |  | O=C(N[C@@H](c1ccccc1)c1ccc(C2CC2)c(F)n1)[C@H]1C[C@@H]1F [compound 2, (1R,2S)-N-((S)-(5-cyclopropyl-6-fluoropyridin-2-yl)(phenyl)methyl)-2-fluorocyclopropane-1-carboxamide]
10 | 285 |  | > 100000 | CC(=O)Nc1ccccc1[C@H](NC(=O)C1CC1)c1ccc(C(C)C)cc1 [compound 1, (R)-N-((2-acetamidophenyl)(4-isopropylphenyl)methyl)cyclopropanecarboxamide]
11 | 1820 |  | > 100000 | CC(C)c1ccc([C@@H](NC(=O)C2CC2)c2ccnn2C)cc1 (single isomer, unassigned) [compound 69]
12 | 1230 |  | > 100000 | CNC(=O)Nc1ccccc1[C@H](NC(=O)C1CC1)c1ccc(C(C)C)cc1 [compound 53, (R)-N-((4-isopropylphenyl)(2-(3-methylureido)phenyl)methyl)cyclopropanecarboxamide]
